Laboratory results taken from the kinase profiling compilation of Christmann-Franck et al. (2016).

Key:
[1] = biological target: AAK1 (human) (UniProt Q2M2I8); experiment: KINOMEscan competition binding; conditions: compound 10.0 µM
[2] = biological target: BMP2K (human) (UniProt Q9NSY1); experiment: KINOMEscan competition binding; conditions: compound 10.0 µM
[3] = biological target: CLK1 (human) (UniProt P49759); experiment: KINOMEscan competition binding; conditions: compound 10.0 µM
[4] = biological target: CLK2 (human) (UniProt P49760); experiment: KINOMEscan competition binding; conditions: compound 10.0 µM
CLK2 (human), sequence (P49760 whole entry, looked up): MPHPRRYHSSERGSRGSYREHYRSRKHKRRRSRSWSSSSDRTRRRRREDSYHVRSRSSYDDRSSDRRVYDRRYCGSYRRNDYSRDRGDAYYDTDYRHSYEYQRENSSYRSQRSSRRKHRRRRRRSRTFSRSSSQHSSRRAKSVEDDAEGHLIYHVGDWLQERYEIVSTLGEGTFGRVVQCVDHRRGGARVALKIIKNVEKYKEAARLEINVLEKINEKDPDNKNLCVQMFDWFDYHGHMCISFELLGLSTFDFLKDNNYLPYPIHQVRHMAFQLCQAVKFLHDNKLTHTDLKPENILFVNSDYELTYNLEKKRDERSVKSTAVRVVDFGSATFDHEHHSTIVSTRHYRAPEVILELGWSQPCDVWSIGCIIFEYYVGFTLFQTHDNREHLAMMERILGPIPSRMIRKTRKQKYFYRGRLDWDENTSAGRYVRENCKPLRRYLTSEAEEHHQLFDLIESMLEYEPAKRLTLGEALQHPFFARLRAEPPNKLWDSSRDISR

[5] = biological target: CSNK1G2 (human) (UniProt P78368); experiment: KINOMEscan competition binding; conditions: compound 10.0 µM
[6] = biological target: CSNK2A1 (human) (UniProt P68400); experiment: KINOMEscan competition binding; conditions: compound 10.0 µM
[7] = biological target: CSNK2A2 (human) (UniProt P19784); experiment: KINOMEscan competition binding; conditions: compound 10.0 µM
CSNK2A2 (human), sequence (P19784 whole entry, looked up): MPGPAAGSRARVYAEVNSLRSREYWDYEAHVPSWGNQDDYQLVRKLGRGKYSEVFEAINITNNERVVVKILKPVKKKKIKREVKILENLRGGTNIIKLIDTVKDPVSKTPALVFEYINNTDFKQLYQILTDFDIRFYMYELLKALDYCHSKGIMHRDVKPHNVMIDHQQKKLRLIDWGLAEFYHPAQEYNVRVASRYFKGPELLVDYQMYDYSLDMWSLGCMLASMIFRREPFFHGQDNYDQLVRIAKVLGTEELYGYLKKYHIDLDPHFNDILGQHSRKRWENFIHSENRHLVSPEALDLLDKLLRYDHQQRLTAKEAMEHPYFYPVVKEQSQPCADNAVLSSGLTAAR

[8] = biological target: DAPK1 (human) (UniProt P53355); experiment: KINOMEscan competition binding; conditions: compound 10.0 µM
[9] = biological target: DAPK2 (human) (UniProt Q9UIK4); experiment: KINOMEscan competition binding; conditions: compound 10.0 µM
DAPK2 (human), sequence (Q9UIK4 whole entry, looked up): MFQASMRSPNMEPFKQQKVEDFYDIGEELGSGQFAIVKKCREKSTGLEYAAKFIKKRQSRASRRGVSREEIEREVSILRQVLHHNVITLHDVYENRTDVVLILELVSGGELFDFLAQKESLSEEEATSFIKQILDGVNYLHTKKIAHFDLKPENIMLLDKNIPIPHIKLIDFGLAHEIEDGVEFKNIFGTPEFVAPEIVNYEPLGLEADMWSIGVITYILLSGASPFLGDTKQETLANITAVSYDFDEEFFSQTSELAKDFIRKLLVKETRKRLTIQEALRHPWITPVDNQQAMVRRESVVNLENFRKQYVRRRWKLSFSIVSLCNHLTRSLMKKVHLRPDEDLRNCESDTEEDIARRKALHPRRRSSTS

[10] = biological target: DAPK3 (human) (UniProt O43293); experiment: KINOMEscan competition binding; conditions: compound 10.0 µM
DAPK3 (human), sequence (O43293 whole entry, looked up): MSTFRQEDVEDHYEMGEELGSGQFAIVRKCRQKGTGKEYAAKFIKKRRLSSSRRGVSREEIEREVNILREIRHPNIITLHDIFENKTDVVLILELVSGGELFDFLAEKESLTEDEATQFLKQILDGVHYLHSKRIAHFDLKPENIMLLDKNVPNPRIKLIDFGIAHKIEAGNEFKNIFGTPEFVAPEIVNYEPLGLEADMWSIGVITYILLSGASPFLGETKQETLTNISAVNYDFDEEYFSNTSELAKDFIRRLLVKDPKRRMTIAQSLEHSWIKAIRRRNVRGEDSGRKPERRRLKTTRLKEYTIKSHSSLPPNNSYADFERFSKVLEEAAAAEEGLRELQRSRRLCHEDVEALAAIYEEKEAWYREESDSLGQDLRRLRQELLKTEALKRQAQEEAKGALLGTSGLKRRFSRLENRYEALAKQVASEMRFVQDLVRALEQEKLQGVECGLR

[11] = test system: EIF2AK4 KD2 (human), Q9P2K8 [S808G]; experiment: KINOMEscan competition binding; conditions: compound 10.0 µM
[12] = biological target: HIPK1 (human) (UniProt Q86Z02); experiment: KINOMEscan competition binding; conditions: compound 10.0 µM
[13] = biological target: PDGFRB (human) (UniProt P09619); experiment: KINOMEscan competition binding; conditions: compound 10.0 µM
[14] = biological target: PIK3CB (human) (UniProt P42338); experiment: KINOMEscan competition binding; conditions: compound 10.0 µM
PIK3CB (human), sequence (P42338 whole entry, looked up): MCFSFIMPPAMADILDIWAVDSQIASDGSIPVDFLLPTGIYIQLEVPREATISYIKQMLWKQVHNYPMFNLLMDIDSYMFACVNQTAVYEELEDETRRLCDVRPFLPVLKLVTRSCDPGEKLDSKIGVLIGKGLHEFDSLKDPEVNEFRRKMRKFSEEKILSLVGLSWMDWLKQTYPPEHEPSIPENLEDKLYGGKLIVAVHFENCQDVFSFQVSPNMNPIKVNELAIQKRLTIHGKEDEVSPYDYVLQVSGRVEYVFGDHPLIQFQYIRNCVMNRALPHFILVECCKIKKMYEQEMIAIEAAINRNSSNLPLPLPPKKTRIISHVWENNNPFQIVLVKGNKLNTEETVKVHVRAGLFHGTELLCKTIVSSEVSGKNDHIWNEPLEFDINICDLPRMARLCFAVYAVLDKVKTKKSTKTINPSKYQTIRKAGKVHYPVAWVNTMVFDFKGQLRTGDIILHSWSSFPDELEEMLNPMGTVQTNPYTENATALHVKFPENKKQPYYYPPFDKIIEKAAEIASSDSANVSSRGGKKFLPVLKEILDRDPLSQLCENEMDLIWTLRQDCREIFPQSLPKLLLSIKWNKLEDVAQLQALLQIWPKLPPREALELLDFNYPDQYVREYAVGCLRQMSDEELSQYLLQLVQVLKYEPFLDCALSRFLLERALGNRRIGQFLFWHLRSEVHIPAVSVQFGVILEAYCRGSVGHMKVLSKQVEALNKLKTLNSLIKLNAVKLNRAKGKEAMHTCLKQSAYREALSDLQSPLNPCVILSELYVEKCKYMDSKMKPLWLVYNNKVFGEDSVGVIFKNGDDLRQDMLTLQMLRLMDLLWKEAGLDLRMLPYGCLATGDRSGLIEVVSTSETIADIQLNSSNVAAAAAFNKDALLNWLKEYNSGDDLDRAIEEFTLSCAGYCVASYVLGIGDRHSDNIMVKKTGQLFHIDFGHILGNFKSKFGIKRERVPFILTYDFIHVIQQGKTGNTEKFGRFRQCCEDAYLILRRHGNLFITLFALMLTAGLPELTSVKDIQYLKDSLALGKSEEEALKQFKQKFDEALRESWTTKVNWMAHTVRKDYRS

[15] = biological target: PIK3CG (human) (UniProt P48736); experiment: KINOMEscan competition binding; conditions: compound 10.0 µM
[16] = biological target: PIM1 (human) (UniProt P11309); experiment: KINOMEscan competition binding; conditions: compound 10.0 µM
PIM1 (human), sequence (P11309 whole entry, looked up): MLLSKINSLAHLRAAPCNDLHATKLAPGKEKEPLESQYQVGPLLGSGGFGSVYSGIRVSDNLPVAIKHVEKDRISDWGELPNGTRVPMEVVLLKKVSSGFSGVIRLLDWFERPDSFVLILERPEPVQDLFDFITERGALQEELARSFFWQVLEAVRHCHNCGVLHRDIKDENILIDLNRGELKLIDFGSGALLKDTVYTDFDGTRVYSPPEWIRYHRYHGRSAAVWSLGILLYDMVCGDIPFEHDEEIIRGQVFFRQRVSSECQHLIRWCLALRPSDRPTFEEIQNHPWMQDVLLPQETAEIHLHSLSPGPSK

[17] = biological target: PIM2 (human) (UniProt Q9P1W9); experiment: KINOMEscan competition binding; conditions: compound 10.0 µM
PIM2 (human), sequence (Q9P1W9 whole entry, looked up): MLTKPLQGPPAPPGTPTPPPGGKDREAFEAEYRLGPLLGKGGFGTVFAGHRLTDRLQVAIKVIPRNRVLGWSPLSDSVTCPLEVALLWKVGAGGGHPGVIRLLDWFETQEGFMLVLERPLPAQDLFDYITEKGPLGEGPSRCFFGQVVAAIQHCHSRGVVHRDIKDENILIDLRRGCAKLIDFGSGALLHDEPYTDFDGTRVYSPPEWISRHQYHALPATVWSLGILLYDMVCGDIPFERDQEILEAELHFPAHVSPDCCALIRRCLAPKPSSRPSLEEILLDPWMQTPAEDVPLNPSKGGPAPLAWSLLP

[18] = biological target: PIM3 (human) (UniProt Q86V86); experiment: KINOMEscan competition binding; conditions: compound 10.0 µM
[19] = biological target: PLK1 (human) (UniProt P53350); experiment: KINOMEscan competition binding; conditions: compound 10.0 µM
[20] = biological target: RIOK1 (human) (UniProt Q9BRS2); experiment: KINOMEscan competition binding; conditions: compound 10.0 µM
[21] = biological target: RIOK3 (human) (UniProt O14730); experiment: KINOMEscan competition binding; conditions: compound 10.0 µM
[22] = biological target: RPS6KA2 KD2 (human) (UniProt Q15349); experiment: KINOMEscan competition binding; conditions: compound 10.0 µM
[23] = biological target: RPS6KA4 KD2 (human) (UniProt O75676); experiment: KINOMEscan competition binding; conditions: compound 10.0 µM
[24] = biological target: RPS6KA5 KD2 (human) (UniProt O75582); experiment: KINOMEscan competition binding; conditions: compound 10.0 µM
[25] = biological target: SRPK1 (human) (UniProt Q96SB4); experiment: KINOMEscan competition binding; conditions: compound 10.0 µM
[26] = biological target: SRPK3 (human) (UniProt Q9UPE1); experiment: KINOMEscan competition binding; conditions: compound 10.0 µM
[27] = biological target: STK17A (human) (UniProt Q9UEE5); experiment: KINOMEscan competition binding; conditions: compound 10.0 µM
STK17A (human), sequence (Q9UEE5 whole entry, looked up): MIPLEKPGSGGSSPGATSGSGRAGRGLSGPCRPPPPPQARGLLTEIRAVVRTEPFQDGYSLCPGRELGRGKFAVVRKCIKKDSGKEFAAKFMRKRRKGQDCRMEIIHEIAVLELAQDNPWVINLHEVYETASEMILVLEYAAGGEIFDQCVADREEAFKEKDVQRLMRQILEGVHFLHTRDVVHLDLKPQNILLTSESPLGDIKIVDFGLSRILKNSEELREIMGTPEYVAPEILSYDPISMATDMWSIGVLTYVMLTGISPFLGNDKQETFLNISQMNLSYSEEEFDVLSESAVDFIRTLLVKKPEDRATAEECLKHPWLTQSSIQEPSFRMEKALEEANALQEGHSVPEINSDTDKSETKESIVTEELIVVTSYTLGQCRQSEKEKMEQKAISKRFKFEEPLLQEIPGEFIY

[28] = biological target: STK17B (human) (UniProt O94768); experiment: KINOMEscan competition binding; conditions: compound 10.0 µM
[29] = biological target: TAOK3 (human) (UniProt Q9H2K8); experiment: KINOMEscan competition binding; conditions: compound 10.0 µM
[30] = biological target: ZAP70 (human) (UniProt P43403); experiment: KINOMEscan competition binding; conditions: compound 10.0 µM
ZAP70 (human), sequence (P43403 whole entry, looked up): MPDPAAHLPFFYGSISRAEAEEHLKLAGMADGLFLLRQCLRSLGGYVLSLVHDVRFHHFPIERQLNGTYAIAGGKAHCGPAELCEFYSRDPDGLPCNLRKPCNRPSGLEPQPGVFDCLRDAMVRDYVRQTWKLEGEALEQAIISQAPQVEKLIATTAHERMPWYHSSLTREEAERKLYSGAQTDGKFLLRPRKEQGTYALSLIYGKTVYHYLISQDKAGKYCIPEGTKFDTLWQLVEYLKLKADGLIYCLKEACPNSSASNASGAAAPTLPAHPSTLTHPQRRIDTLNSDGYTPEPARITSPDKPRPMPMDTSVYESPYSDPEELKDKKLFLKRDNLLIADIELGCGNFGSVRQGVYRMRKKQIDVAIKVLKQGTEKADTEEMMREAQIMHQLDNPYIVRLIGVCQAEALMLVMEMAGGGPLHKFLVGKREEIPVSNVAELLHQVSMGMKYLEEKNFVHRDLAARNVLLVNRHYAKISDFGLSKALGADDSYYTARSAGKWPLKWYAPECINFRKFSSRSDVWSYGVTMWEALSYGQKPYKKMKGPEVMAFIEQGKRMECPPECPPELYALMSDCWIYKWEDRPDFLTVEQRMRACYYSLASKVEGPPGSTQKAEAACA

[31] = biological target: ACVR2A (human) (UniProt P27037); experiment: KINOMEscan competition binding; conditions: compound 10.0 µM
[32] = biological target: ACVR2B (human) (UniProt Q13705); experiment: KINOMEscan competition binding; conditions: compound 10.0 µM
[33] = biological target: BTK (human) (UniProt Q06187); experiment: KINOMEscan competition binding; conditions: compound 10.0 µM
[34] = biological target: CDK7 (human) (UniProt P50613); experiment: KINOMEscan competition binding; conditions: compound 10.0 µM
[35] = biological target: CLK4 (human) (UniProt Q9HAZ1); experiment: KINOMEscan competition binding; conditions: compound 10.0 µM
[36] = biological target: CSNK1D (human) (UniProt P48730); experiment: KINOMEscan competition binding; conditions: compound 10.0 µM
[37] = biological target: DYRK1B (human) (UniProt Q9Y463); experiment: KINOMEscan competition binding; conditions: compound 10.0 µM
[38] = biological target: GAK (human) (UniProt O14976); experiment: KINOMEscan competition binding; conditions: compound 10.0 µM
[39] = biological target: GSK3A (human) (UniProt P49840); experiment: KINOMEscan competition binding; conditions: compound 10.0 µM
[40] = biological target: JAK1 JH2 pseudokinase (human) (UniProt P23458); experiment: KINOMEscan competition binding; conditions: compound 10.0 µM
[41] = biological target: MAP2K3 (human) (UniProt P46734); experiment: KINOMEscan competition binding; conditions: compound 10.0 µM
[42] = biological target: MAP2K4 (human) (UniProt P45985); experiment: KINOMEscan competition binding; conditions: compound 10.0 µM
[43] = biological target: MAP3K7 (human) (UniProt O43318); experiment: KINOMEscan competition binding; conditions: compound 10.0 µM
[44] = biological target: MAPK10 (human) (UniProt P53779); experiment: KINOMEscan competition binding; conditions: compound 10.0 µM
[45] = biological target: MAPK8 (human) (UniProt P45983); experiment: KINOMEscan competition binding; conditions: compound 10.0 µM
[46] = biological target: MKNK2 (human) (UniProt Q9HBH9); experiment: KINOMEscan competition binding; conditions: compound 10.0 µM
[47] = biological target: MYLK4 (human) (UniProt Q86YV6); experiment: KINOMEscan competition binding; conditions: compound 10.0 µM
[48] = biological target: NUAK2 (human) (UniProt Q9H093); experiment: KINOMEscan competition binding; conditions: compound 10.0 µM
[49] = biological target: PAK2 (human) (UniProt Q13177); experiment: KINOMEscan competition binding; conditions: compound 10.0 µM
[50] = biological target: PIK3CD (human) (UniProt O00329); experiment: KINOMEscan competition binding; conditions: compound 10.0 µM
[51] = biological target: PLK4 (human) (UniProt O00444); experiment: KINOMEscan competition binding; conditions: compound 10.0 µM
[52] = biological target: RIOK2 (human) (UniProt Q9BVS4); experiment: KINOMEscan competition binding; conditions: compound 10.0 µM
[53] = biological target: RPS6KA1 KD2 (human) (UniProt Q15418); experiment: KINOMEscan competition binding; conditions: compound 10.0 µM
[54] = biological target: RPS6KA6 KD2 (human) (UniProt Q9UK32); experiment: KINOMEscan competition binding; conditions: compound 10.0 µM
[55] = biological target: STK24 (human) (UniProt Q9Y6E0); experiment: KINOMEscan competition binding; conditions: compound 10.0 µM
[56] = biological target: TAOK1 (human) (UniProt Q7L7X3); experiment: KINOMEscan competition binding; conditions: compound 10.0 µM
[57] = biological target: TGFBR2 (human) (UniProt P37173); experiment: KINOMEscan competition binding; conditions: compound 10.0 µM
[58] = biological target: TLK1 (human) (UniProt Q9UKI8); experiment: KINOMEscan competition binding; conditions: compound 10.0 µM
[59] = biological target: TTK (human) (UniProt P33981); experiment: KINOMEscan competition binding; conditions: compound 10.0 µM
[60] = biological target: TYK2 JH2 pseudokinase (human) (UniProt P29597); experiment: KINOMEscan competition binding; conditions: compound 10.0 µM
[61] = biological target: PIM1 (human) (UniProt P11309); experiment: SelectScreen, TR FRET
[62] = biological target: PIM2 (human) (UniProt Q9P1W9); experiment: SelectScreen, TR FRET

CLK1 (human), sequence (P49759 whole entry, looked up): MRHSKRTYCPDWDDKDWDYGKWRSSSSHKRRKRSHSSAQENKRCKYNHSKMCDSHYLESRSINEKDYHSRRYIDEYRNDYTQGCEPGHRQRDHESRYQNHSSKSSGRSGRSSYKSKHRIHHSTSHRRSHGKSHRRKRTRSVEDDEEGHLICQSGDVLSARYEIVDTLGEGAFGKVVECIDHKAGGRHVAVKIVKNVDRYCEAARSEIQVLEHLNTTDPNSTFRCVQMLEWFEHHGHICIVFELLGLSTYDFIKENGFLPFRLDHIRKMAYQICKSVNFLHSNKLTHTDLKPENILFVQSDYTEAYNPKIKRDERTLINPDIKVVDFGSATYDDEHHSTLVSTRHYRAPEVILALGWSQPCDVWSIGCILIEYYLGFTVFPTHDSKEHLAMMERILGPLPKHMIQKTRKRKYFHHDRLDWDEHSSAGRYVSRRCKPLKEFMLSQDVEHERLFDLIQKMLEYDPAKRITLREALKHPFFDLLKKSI

O=C1NC(=O)/C(=C/c2c[nH]c(=O)c(-c3ccc(C(=O)Nc4ccc(N5CCNCC5)cc4)cc3)c2)S1
kinase still bound, per cent of control [1]: 4.4%
kinase still bound, per cent of control [2]: 22%
kinase still bound, per cent of control [3]: 16%
kinase still bound, per cent of control [4]: 0.45%
kinase still bound, per cent of control [5]: 24%
kinase still bound, per cent of control [6]: 24%
kinase still bound, per cent of control [7]: 32%
kinase still bound, per cent of control [8]: 3.6%
kinase still bound, per cent of control [9]: 6.4%
kinase still bound, per cent of control [10]: 4.8%
kinase still bound, per cent of control [11]: 27%
kinase still bound, per cent of control [12]: 9%
kinase still bound, per cent of control [13]: 0%
kinase still bound, per cent of control [14]: 2.4%
kinase still bound, per cent of control [15]: 22%
kinase still bound, per cent of control [16]: 9.5%
kinase still bound, per cent of control [17]: 1.2%
kinase still bound, per cent of control [18]: 10%
kinase still bound, per cent of control [19]: 17%
kinase still bound, per cent of control [20]: 14%
kinase still bound, per cent of control [21]: 13%
kinase still bound, per cent of control [22]: 29%
kinase still bound, per cent of control [23]: 0.95%
kinase still bound, per cent of control [24]: 19%
kinase still bound, per cent of control [25]: 31%
kinase still bound, per cent of control [26]: 28%
kinase still bound, per cent of control [27]: 6.3%
kinase still bound, per cent of control [28]: 0.6%
kinase still bound, per cent of control [29]: 26%
kinase still bound, per cent of control [30]: 11%

N=C1NC(=O)/C(=C/c2ccc(-c3cccc4cc[nH]c34)o2)S1
kinase still bound, per cent of control [31]: 25%
kinase still bound, per cent of control [32]: 20%
kinase still bound, per cent of control [33]: 18%
kinase still bound, per cent of control [34]: 20%
kinase still bound, per cent of control [3]: 17%
kinase still bound, per cent of control [4]: 7.7%
kinase still bound, per cent of control [35]: 20%
kinase still bound, per cent of control [36]: 30%
kinase still bound, per cent of control [6]: 26%
kinase still bound, per cent of control [7]: 24%
kinase still bound, per cent of control [8]: 4.4%
kinase still bound, per cent of control [9]: 12%
kinase still bound, per cent of control [10]: 16%
kinase still bound, per cent of control [37]: 7.4%
kinase still bound, per cent of control [38]: 5%
kinase still bound, per cent of control [39]: 20%
kinase still bound, per cent of control [12]: 0.45%
kinase still bound, per cent of control [40]: 30%
kinase still bound, per cent of control [41]: 17%
kinase still bound, per cent of control [42]: 3.9%
kinase still bound, per cent of control [43]: 34%
kinase still bound, per cent of control [44]: 31%
kinase still bound, per cent of control [45]: 14%
kinase still bound, per cent of control [46]: 11%
kinase still bound, per cent of control [47]: 32%
kinase still bound, per cent of control [48]: 21%
kinase still bound, per cent of control [49]: 32%
kinase still bound, per cent of control [14]: 4.5%
kinase still bound, per cent of control [50]: 23%
kinase still bound, per cent of control [16]: 4.9%
kinase still bound, per cent of control [17]: 0.45%
kinase still bound, per cent of control [18]: 4%
kinase still bound, per cent of control [51]: 18%
kinase still bound, per cent of control [52]: 5.5%
kinase still bound, per cent of control [53]: 17%
kinase still bound, per cent of control [22]: 24%
kinase still bound, per cent of control [54]: 30%
kinase still bound, per cent of control [27]: 0.05%
kinase still bound, per cent of control [28]: 0.4%
kinase still bound, per cent of control [55]: 27%
kinase still bound, per cent of control [56]: 6%
kinase still bound, per cent of control [57]: 5.8%
kinase still bound, per cent of control [58]: 22%
kinase still bound, per cent of control [59]: 21%
kinase still bound, per cent of control [60]: 2.2%
kinase still bound, per cent of control [30]: 8.2%
IC50 [61]: 961 nM
IC50 [62]: 1770 nM
